The target of the experiment is T1, HCV polymerase (Hepatitis C virus genotype 1b, UniProt P26663).
T1 construct: a region encoding NS5B (J Virol 1991 March, 65(3), 1105-13, 544 amino acids after deletion of 47 amino acids on the C-terminal); 6xHis (C); made in house; host or cells: Escherichia coli
The experiment can be described thus: biochemical. Also on record: species or system HCV BK strain. In a few lines:
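Recombinant HCV BK-strain NS5B (C-terminal 47 aa deleted, His6-tagged, E. coli), 0.5 μg/ml, run with 5 μg/ml in vitro-transcribed RNA template (polyU/3′X), ATP/GTP/CTP 50 μM, UTP 2 μM plus [3H]UTP, pH 7.5, 25° C, 90 min. TCA-precipitated RNA counted by scintillation; IC50 from activity with vs without compound.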

This passage reports IC50 results from patent US20070049593A1 (priority 2004, published 2007).

Structures can show the parent of a compound that is named as a salt. Bounds are passed on as bounds.

T1 sequence (P26663 2420-2963): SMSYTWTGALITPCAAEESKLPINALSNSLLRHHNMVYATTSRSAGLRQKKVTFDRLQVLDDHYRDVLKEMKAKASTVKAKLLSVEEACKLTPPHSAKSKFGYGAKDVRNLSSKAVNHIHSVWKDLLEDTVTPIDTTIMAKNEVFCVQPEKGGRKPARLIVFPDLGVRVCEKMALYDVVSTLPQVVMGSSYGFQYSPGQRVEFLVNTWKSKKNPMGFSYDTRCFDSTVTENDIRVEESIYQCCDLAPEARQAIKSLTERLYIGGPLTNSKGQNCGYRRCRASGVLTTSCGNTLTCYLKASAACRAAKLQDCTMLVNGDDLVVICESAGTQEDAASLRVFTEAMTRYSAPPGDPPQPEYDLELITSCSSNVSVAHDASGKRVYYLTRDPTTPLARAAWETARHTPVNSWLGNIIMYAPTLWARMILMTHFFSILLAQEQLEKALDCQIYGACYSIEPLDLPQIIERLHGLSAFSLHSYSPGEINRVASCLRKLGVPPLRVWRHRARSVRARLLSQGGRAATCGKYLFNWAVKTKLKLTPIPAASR

In turn, `CN1CCC(NC(=O)c2ccc3c(C4CCCCC4)c4n(c3c2)CCOc2ccccc2-4)(C(=O)O)CC1` [Example 2-182, 4-[(12-cyclohexyl-6,7-dihydro-5-oxa-7a-azadibenzo[a,e]azulene-9-carbonyl)amino]-1-methylpiperidine-4-carboxylic acid] showed an IC50 below 100 nM.
`CC(C)(CNc1ccc(C(=O)O)cc1)NC(=O)c1ccc2c(C3CCCCC3)c3n(c2c1)CCOc1ccccc1-3` [Example 2-183, 4-{2-[(12-cyclohexyl-6,7-dihydro-5-oxa-7a-azadibenzo[a,e]azulene-9-carbonyl)amino]-2-methylpropylamino}benzoic acid] yielded an IC50 below 100 nM.
`CC(C)(CNc1ccc(C(N)=O)cc1)NC(=O)c1ccc2c(C3CCCCC3)c3n(c2c1)CCOc1ccccc1-3` [Example 2-184, N-[2-(4-carbamoylphenylamino)-1,1-dimethylethyl]-12-cyclohexyl-6,7-dihydro-5-oxa-7a-azadibenzo[a,e]azulene-9-carboxamide] yielded an IC50 below 100 nM.
To `CC(C)(CNC(=O)OC(C)(C)C)NC(=O)c1ccc2c(C3CCCCC3)c3n(c2c1)CCOc1ccccc1-3` [Example 2-185, tert-butyl {2-[(12-cyclohexyl-6,7-dihydro-5-oxa-7a-azadibenzo[a,e]azulene-9-carbonyl)amino]-2-methylpropyl}carbamate] belongs 100 to 1000 nM; to `CC(C)(CN)NC(=O)c1ccc2c(C3CCCCC3)c3n(c2c1)CCOc1ccccc1-3` [Example 2-186, N-(2-amino-1,1-dimethylethyl)-12-cyclohexyl-6,7-dihydro-5-oxa-7a-azadibenzo[a,e]azulene-9-carboxamide monohydrochloride], 100 to 1000 nM; to `CC(C)(CNCC(=O)O)NC(=O)c1ccc2c(C3CCCCC3)c3n(c2c1)CCOc1ccccc1-3` [Example 2-187, (2-[(12-cyclohexyl-6,7-dihydro-5-oxa-7a-azadibenzo[a,e]azulene-9-carbonyl)amino]-2-methylpropylamino)acetic acid], 100 to 1000 nM.
To `CC(C)(COc1ccc([N+](=O)[O-])cc1)NC(=O)c1ccc2c(C3CCCCC3)c3n(c2c1)CCOc1ccccc1-3` [Example 2-188, N-[1,1-dimethyl-2-(4-nitrophenoxy)ethyl]-12-cyclohexyl-6,7-dihydro-5-oxa-7a-azadibenzo[a,e]azulene-9-carboxamide] belongs 100 to 1000 nM; to `CN(C)CC(C)(NC(=O)c1ccc2c(C3CCCCC3)c3n(c2c1)CCOc1ccccc1-3)C(=O)O` (stereo not shown) [Example 2-189, 2-[(12-cyclohexyl-6,7-dihydro-5-oxa-7a-azadibenzo[a,e]azulene-9-carbonyl)amino]-3-dimethylamino-2-methylpropionic acid], 100 to 1000 nM.
The figure for `CC(C)(NC(=O)c1ccc2c(C3CCCCC3)c3n(c2c1)CCOc1ccccc1-3)C(=O)N1CCC(O)CC1` [Example 2-190, N-[2-(4-hydroxypiperidin-1-yl)-1,1-dimethyl-2-oxoethyl]-12-cyclohexyl-6,7-dihydro-5-oxa-7a-azadibenzo[a,e]azulene-9-carboxamide] is below 100 nM; for `O=C(O)c1ccc2c(C3CCCCC3)c3n(c2c1)CCOc1c-3cccc1N(CCN1CCCCC1)Cc1ccccc1` [Example 2-191, 4-{N-benzyl-N-[2-(piperidin-1-yl)ethyl]amino}-12-cyclohexyl-6,7-dihydro-5-oxa-7a-azadibenzo[a,e]azulene-9-carboxylic acid dihydrochloride] it is below 100 nM.
`O=C(Nc1ccc(O)cc1)c1ccc2c(C3CCCCC3)c3n(c2c1)CCOc1ccccc1-3` [Example 2-192, N-(4-hydroxyphenyl)-12-cyclohexyl-6,7-dihydro-5-oxa-7a-azadibenzo[a,e]azulene-9-carboxamide] had an IC50 below 100 nM.
To `CC(C)(NC(=O)c1ccc2c(C3CCCCC3)c3n(c2c1)CCOc1ccccc1-3)C(=O)Nc1ccc(C(N)=O)cc1` [Example 2-193, N-[1-(4-carbamoylphenylcarbamoyl)-1-methylethyl]-12-cyclohexyl-6,7-dihydro-5-oxa-7a-azadibenzo[a,e]azulene-9-carboxamide] belongs below 100 nM; to `CN(C)C(=O)c1ccc(NC(=O)C(C)(C)NC(=O)c2ccc3c(C4CCCCC4)c4n(c3c2)CCOc2ccccc2-4)cc1` [Example 2-194, N-[1-(4-dimethylcarbamoylphenylcarbamoyl)-1-methylethyl]-12-cyclohexyl-6,7-dihydro-5-oxa-7a-azadibenzo[a,e]azulene-9-carboxamide], below 100 nM; to `CC(C)(NC(=O)c1ccc2c(C3CCCCC3)c3n(c2c1)CCOc1ccccc1-3)C(=O)Nc1ccc(CO)cc1` [Example 2-195, N-[1-(4-hydroxymethylphenylcarbamoyl)-1-methylethyl]-12-cyclohexyl-6,7-dihydro-5-oxa-7a-azadibenzo[a,e]azulene-9-carboxamide], below 100 nM.
To `COC(=O)c1ccc2nc(C(C)(C)NC(=O)c3ccc4c(C5CCCCC5)c5n(c4c3)CCOc3ccccc3-5)[nH]c2c1` [Example 2-196, methyl 2-{1-[(12-cyclohexyl-6,7-dihydro-5-oxa-7a-azadibenzo[a,e]azulene-9-carbonyl)amino]-1-methylethyl}-3H-benzimidazole-5-carboxylate] belongs below 100 nM; to `O=C(O)c1ccc2nc(CNC(=O)c3ccc4c(C5CCCCC5)c5n(c4c3)CCOc3ccccc3-5)[nH]c2c1` [Example 2-197, 2-{[(12-cyclohexyl-6,7-dihydro-5-oxa-7a-azadibenzo[a,e]azulene-9-carbonyl)amino]methyl}-3H-benzimidazole-5-carboxylic acid], below 100 nM.
To `CC(C)(NC(=O)c1ccc2c(C3CCCCC3)c3n(c2c1)CCOc1ccccc1-3)c1nc2ccccc2[nH]1` [Example 2-198, N-[1-(1H-benzimidazol-2-yl)-1-methylethyl]-12-cyclohexyl-6,7-dihydro-5-oxa-7a-azadibenzo[a,e]azulene-9-carboxamide] belongs below 100 nM; to `CC(C)(NC(=O)c1ccc2c(C3CCCCC3)c3n(c2c1)CCOc1ccccc1-3)c1nc2cc(Cl)ccc2[nH]1` [Example 2-199, N-[1-(5-chloro-1H-benzimidazol-2-yl)-1-methylethyl]-12-cyclohexyl-6,7-dihydro-5-oxa-7a-azadibenzo[a,e]azulene-9-carboxamide], below 100 nM.
`Cc1ccc(NC(=O)C(C)(C)NC(=O)c2ccc3c(C4CCCCC4)c4n(c3c2)CCOc2ccccc2-4)cc1C(=O)O` [Example 2-200, 5-{2-[(12-cyclohexyl-6,7-dihydro-5-oxa-7a-azadibenzo[a,e]azulene-9-carbonyl)amino]-2-methylpropionylamino}-2-methylbenzoic acid] had an IC50 below 100 nM.
The figure for `CC(C)(NC(=O)c1ccc2c(C3CCCCC3)c3n(c2c1)CCOc1ccccc1-3)C(=O)Nc1cccc(C(=O)O)c1` [Example 2-201, 3-{2-[(12-cyclohexyl-6,7-dihydro-5-oxa-7a-azadibenzo[a,e]azulene-9-carbonyl)amino]-2-methylpropionylamino}benzoic acid] is below 100 nM; for `CC(C)(NC(=O)c1ccc2c(C3CCCCC3)c3n(c2c1)CCOc1ccccc1-3)C(=O)Nc1ccc(O)cc1` [Example 2-202, N-[1-(4-hydroxyphenylcarbamoyl)-1-methylethyl]-12-cyclohexyl-6,7-dihydro-5-oxa-7a-azadibenzo[a,e]azulene-9-carboxamide] it is below 100 nM.
For `CC(C)(NC(=O)c1ccc2c(C3CCCCC3)c3n(c2c1)CCOc1ccccc1-3)C(=O)NCCc1ccc(O)cc1` [Example 2-203, N-{1-[2-(4-hydroxyphenyl)ethylcarbamoyl]-1-methylethyl}-12-cyclohexyl-6,7-dihydro-5-oxa-7a-azadibenzo[a,e]azulene-9-carboxamide], the half-maximal inhibitory concentration (IC50) was below 100 nM.
To `CC(C)(NC(=O)c1ccc2c(C3CCCCC3)c3n(c2c1)CCOc1ccccc1-3)C(=O)Nc1ccc(F)cc1` [Example 2-204, N-[1-(4-fluorophenylcarbamoyl)-1-methylethyl]-12-cyclohexyl-6,7-dihydro-5-oxa-7a-azadibenzo[a,e]azulene-9-carboxamide] belongs below 100 nM; to `O=C(NCCc1ccc(O)cc1)c1ccc2c(C3CCCCC3)c3n(c2c1)CCOc1ccccc1-3` [Example 2-205, N-[2-(4-hydroxyphenyl)ethyl]-12-cyclohexyl-6,7-dihydro-5-oxa-7a-azadibenzo[a,e]azulene-9-carboxamide], below 100 nM.
To `O=C(NCC1(O)CCCCC1)c1ccc2c(C3CCCCC3)c3n(c2c1)CCOc1ccccc1-3` [Example 2-206, N-(1-hydroxycyclohexylmethyl)-12-cyclohexyl-6,7-dihydro-5-oxa-7a-azadibenzo[a,e]azulene-9-carboxamide] belongs 100 to 1000 nM.
Regarding `NC(=O)[C@H](Cc1ccc(O)cc1)NC(=O)c1ccc2c(C3CCCCC3)c3n(c2c1)CCOc1ccccc1-3` [Example 2-207, N—[(S)-1-carbamoyl-2-(4-hydroxyphenyl)ethyl]-12-cyclohexyl-6,7-dihydro-5-oxa-7a-azadibenzo[a,e]azulene-9-carboxamide], the IC50 is below 100 nM.
As to `CC(C)(NC(=O)c1ccc2c(C3CCCCC3)c3n(c2c1)CCOc1ccccc1-3)C1CCC(C(=O)O)CC1` (stereo not shown) [Example 2-208, 4-{1-[(12-cyclohexyl-6,7-dihydro-5-oxa-7a-azadibenzo[a,e]azulene-9-carbonyl)amino]-1-methylethyl}cyclohexanecarboxylic acid], the IC50 was 100 to 1000 nM.
To `COC(=O)c1[nH]c(C(C)(C)NC(=O)c2ccc3c(C4CCCCC4)c4n(c3c2)CCOc2ccccc2-4)nc1C` [Example 2-209, methyl 2-{1-[(12-cyclohexyl-6,7-dihydro-5-oxa-7a-azadibenzo[a,e]azulene-9-carbonyl)amino]-1-methylethyl]-5-methyl-3H-imidazole-4-carboxylate] belongs below 100 nM.

As usually defined, the IC50 is the concentration that gives 50% inhibition.
